Reference: patent publication US20260092060A1, “IS[…] ANALOGS OF 2-BROMO-LSD, LSD, ALD-52, AND 1P-LSD” (priority 2021, published 2026)
Counter-ions that a name gives are not always drawn.

Test: in vitro
Settings: for CLint / T1/2: pooled liver microsomes 0.5 mg/mL protein, test compound 1 μM, NADPH 1 mM, 37° C., 0-45 min, LC-MS/MS; for differences in half-life and intrinsic clearance compared to 2-Br-LSD: human liver microsomes, significant = 15% or more increase in half-life, CLint ratio >1.15 or <0.85; for microsomal CLint / half-life: pH 7.4
Experimental: Test compound (1 μM) was incubated with pooled liver microsomes.
Pooled liver microsomes were purchased from a reputable commercial supplier. Microsomes were stored at −80° C. prior to use.
A minus cofactor control incubation was included for each compound tested where 0.1 M phosphate buffer pH 7.4 was added instead of NADPH (minus NADPH). Two control compounds were included with each species. All incubations were performed singularly for each test compound.
The reactions were stopped by transferring incubate into acetonitrile at the appropriate time points, in a 1:3 ratio. The termination plates were centrifuged at 3,000 rpm for 20 min at 4° C. to precipitate the protein.
Following protein precipitation, the sample supernatants were combined in cassettes of up to 4 compounds, internal standard was added and samples analyzed using generic LCMS/MS conditions.
From a plot of ln peak area ratio (compound peak area/internal standard peak area) against time, the gradient of the line was determined. Subsequently, half-life and intrinsic clearance were calculated using the equations below: […]
Relevant control compounds were assessed, ensuring intrinsic clearance values fell within the specified limits (if available). Any failures were rejected and the assay repeated. The intrinsic clearance (CLint) of the test compound and t ½ were returned.

Row | SMILES | CLint | T1/2 | differences in half-life and intrinsic clearance compared to 2-Br-LSD | microsomal CLint (human, microsomes) | half-life (human, microsomes) | differences in half-life and intrinsic clearance compared to LSD (human, microsomes)
1 | [2H]C([2H])([2H])C([2H])([2H])N(C(=O)[C@@H]1C=C2c3cccc4[nH]cc(c34)C[C@H]2N(C)C1)C([2H])([2H])C([2H])([2H])[2H] [Compound 47, (6aR,9R)-N,N-Bis(ethyl-d5)-7-methyl-4,6,6a,7,8,9-hexahydroindolo[4,3-fg]quinoline-9-carboxamide] | 17.2 μL/min/mg protein | 1.35 h |  |  |  | 
2 | [2H]c1c([2H])c2c3c(c(Br)[nH]c3c1[2H])C[C@@H]1C2=C[C@@H](C(=O)N(CC)CC)CN1C [Compound 1, (6aR,9R)-5-Bromo-N,N-diethyl-7-methyl-4,6,6a,7,8,9-hexahydroindolo[4,3-fg]quinoline-9-carboxamide-1,2,3-d3 formate] | 52.6 μL/min/mg protein | 0.438 h | differences |  |  | 
3 | COc1ccc2c(c1)[C@]13CCCC[C@@H]1[C@H](C2)N(C)CC3 [dextromethorphan, reference compound] |  |  |  | 46.8 µL/min/mg |  | 
4 | CCN(CC)C(=O)[C@@H]1C=C2c3cccc4[nH]c(Br)c(c34)C[C@H]2N(C)C1 [Compound 2-Br-LSD, 2-Bromolysergic acid diethylamide, reference compound] | 56.3 μL/min/mg protein | 0.41 h |  |  |  | 
5 | [2H]c1[nH]c2c([2H])c([2H])c([2H])c3c2c1C[C@@H]1C3=C[C@@H](C(=O)N(CC)CC)CN1C [Compound 45, (6aR,9R)-N,N-diethyl-7-methyl-4,6,6a,7,8,9-hexahydroindolo[4,3-fg]quinoline-9-carboxamide-1,2,3,5-d4 triflate-d] | 16.7 μL/min/mg protein | 1.38 h |  |  |  | 
6 | [2H]c1[nH]c2cccc3c2c1C[C@@H]1C3=C[C@@H](C(=O)N(C([2H])([2H])C([2H])([2H])[2H])C([2H])([2H])C([2H])([2H])[2H])CN1C [Compound 55, (6aR,9R)-N,N-Bis(ethyl-d5)-7-methyl-4,6,6a,7,8,9-hexahydroindolo[4,3-fg]quinoline-9-carboxamide-5-d trifluoroacetate-d] |  |  |  | 16.6 µL/min/mg | 1.39 h | 
7 | [2H]C([2H])([2H])N1C[C@H](C(=O)N(CC)CC)C=C2c3cccc4[nH]c(Br)c(c34)C[C@H]21 [Compound 2, (6aR,9R)-5-bromo-N,N-diethyl-7-(methyl-d3)-4,6,6a,7,8,9-hexahydroindolo[4,3-fg]quinoline-9-carboxamide] | 49.4 μL/min/mg protein | 0.468 h | differences |  |  | 
8 | [2H]C([2H])([2H])N1C[C@H](C(=O)N(C([2H])([2H])C([2H])([2H])[2H])C([2H])([2H])C([2H])([2H])[2H])C=C2c3cccc4[nH]cc(c34)C[C@H]21 [Compound 50, (6aR,9R)-N,N-bis(ethyl-d5)-7-(methyl-d3)-4,6,6a,7,8,9-hexahydroindolo[4,3-fg]quinoline-9-carboxamide trifluoroacetate-d] |  |  |  | 14.3 µL/min/mg | 1.61 h | 
9 | CCN(CC)C(=O)[C@@H]1C=C2c3cccc4[nH]cc(c34)C[C@H]2N(C)C1 [LSD, Lysergic acid diethylamide, reference compound] |  |  |  | 16.3 µL/min/mg | 1.42 h | 
10 | [2H]C([2H])([2H])C([2H])([2H])N(C(=O)[C@@H]1C=C2c3cccc4[nH]c(Br)c(c34)C[C@H]2N(C)C1)C([2H])([2H])C([2H])([2H])[2H] [Compound 7, (6aR,9R)-5-bromo-N,N-bis(ethyl-d5)-7-methyl-4,6,6a,7,8,9-hexahydroindolo[4,3-fg]quinoline-9-carboxamide] | 44.6 μL/min/mg protein | 0.518 h |  |  |  | 
11 | [2H]c1[nH]c2cccc3c2c1C[C@@H]1C3=C[C@@H](C(=O)N(CC)CC)CN1C [Compound 41, (6aR,9R)-N,N-diethyl-7-methyl-4,6,6a,7,8,9-hexahydroindolo[4,3-fg]quinoline-9-carboxamide-4,5-d trifluoroacetate-d] | 17.8 μL/min/mg protein | 1.3 h |  |  |  | 
12 | [2H]c1[nH]c2c([2H])c([2H])c([2H])c3c2c1C[C@@H]1C3=C[C@@H](C(=O)N(C([2H])([2H])C([2H])([2H])[2H])C([2H])([2H])C([2H])([2H])[2H])CN1C [Compound 67, (6aR,9R)-N,N-Bis(ethyl-d5)-7-methyl-4,6,6a,7,8,9-hexahydroindolo[4,3-fg]quinoline-9-carboxamide-1,2,3,5-d4 triflate-d] |  |  |  | 11.5 µL/min/mg | 2 h | significant differences
13 | [2H]C([2H])([2H])N1C[C@H](C(=O)N(C([2H])([2H])C([2H])([2H])[2H])C([2H])([2H])C([2H])([2H])[2H])C=C2c3cccc4[nH]c(Br)c(c34)C[C@H]21 [Compound 9, (6aR,9R)-5-bromo-N,N-bis(ethyl-d5)-7-(methyl-d3)-4,6,6a,7,8,9-hexahydroindolo[4,3-fg]quinoline-9-carboxamide trifluoroacetate-d] | 38.8 μL/min/mg protein | 0.595 h |  |  |  | 
